From article PMC10892120, “Design, Synthesis and Biological Assessment of N′-(2-Oxoindolin-3-ylidene)-6-methylimidazo[2,1-b]thiazole-5-carbohydrazides as Potential Anti-Proliferative Agents toward MCF-7 Breast Cancer” (Pharmaceuticals, 2024)

Columns and labels:
MCF-7 = assay: Apoptotic assay, Annexin V/PI analysis in MCF-7; assay type: cell-based; conditions: MCF-7, Annexin V/PI, % given only in Figure 5
Description: In comparison to the control cells, the apoptotic assay employing Annexin V/PI analysis for compound 6i generated a substantial amount of early and late apoptosis in MCF-7. Compound 6i induced early apoptosis in MCF-7 at rate of 22.05, compared with the control MCF-7 (0.43) (Table 6 and Figure 5).
These were performed using the approach described in the Supplementary Data, page 44 [46]. […]
thoroughly, and then centrifuge at 4°C to collect contents to the bottom of the tube. Chill on ice before using. Centrifuge again briefly at 4°C if needed. Preparation of a reaction cocktail is crucial in quantitative PCR applications to reduce pipetting errors and maximize assay precision and accuracy. Assemble the reaction cocktail with all required components except sample template (total RNA) and dispense equal aliquots into each reaction tube. Add target sample to each reaction as the final step. Addition of sample as 5–10 μl volumes will improve assay precision. Replicate samples should be assembled as a master mix with a single addition of sample template.
Cell cycle analysis and apoptosis
Transfer the previously prepared cells from 4 °C to the bench-top and equilibrate to room temperature. Gently re-suspend cells by inverting the tube or by gentleup and down pipetting.
There may be visible thin salt crystals in the tube but this will not affect the sedimentation of the cells in the next step. Pellet the cells at 500 x g for 5 minutes. Carefully aspirate the supernatant without disrupting the pellet. It is better to incompletely remove the supernatant than to accidently aspirate part of the pellet and lose cells. Wash the cells by gently resuspending in 1 mL 1X PBS.
Again, pellet the cells at 500 x g for 5 minutes and carefully remove the supernatant. Gently resuspend the cell pellet in 200 μL 1X Propidium Iodide + RNase Staining Solution. Then ensure that the cells are fully resuspended. Incubate at 37 °C in the dark for 20 – 30 minutes. Place tubes on ice (still in the dark) and prepare for flow cytometry analysis. Gently resuspend cells that settled during the incubation by pipetting up and down. If desired, pass cells through an appropriate filter (not provided) to remove cell aggregates. Run samples on flow cytometer: Set appropriate FSC vs. SSC gates to exclude debris and cell aggregates. Collect Propidium iodide fluorescence in FL2.
The Protein Data Bank (http://www.rcsb.org) was utilized to obtain the 3D structures of […]
was used to conduct docking studies on established analogues with the VEGFR-2 active site. This program was run with a searching grid that was stretched across ligand molecules, with box […]
parameters set to default. The highest scoring posit ion for every compound was chosen after docking it into the crystal structure. […]

SMILES: CCCCN1C(=O)C(=NNC(=O)c2c(C)nc3sccn23)c2ccccc21 [Compound 6i, N′-(1-Butyl-2-oxoindolin-3-ylidene)-6-methylimidazo[2,1-b]thiazole-5-carbohydrazide]
- Apoptosis Late (MCF-7; control 0.11): 7.61%
- Apoptosis Early (MCF-7; control 0.43): 22.05%
- Necrosis (MCF-7; control 1.37): 3.15%
- Apoptosis Total (MCF-7; control 1.91): 32.81%
- melting point: 250 to 251 °C
